From ChEMBL document CHEMBL1201862, “PubChem BioAssay data set” (2004)
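Five compound concentrations were applied to cells in 96-well plates for 48 hours; endpoints were derived by simple linear interpolation of the resulting dose-response curve. GI50 = concentration required for 50% inhibition of growth.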 Active and inactive are the calls of the source. Rule as the data show it: active = GI50 up to about 1.1 µM and inactive = higher.

Columns and labels:
Test in all cases: growth of human tumour cells (NCI), 48 h
[1] = test system: 786-0
[2] = test system: A498
[3] = test system: A549
[4] = test system: ACHN
[5] = test system: BT-549
[6] = test system: CAKI-1
[7] = test system: CCRF-CEM
[8] = test system: COLO 205
[9] = test system: DU-145
[10] = test system: EKVX
[11] = test system: HCC 2998
[12] = test system: HCT-116
[13] = test system: HCT-15
[14] = test system: HL-60
[15] = test system: HOP-62
[16] = test system: HOP-92
[17] = test system: HT-29
[18] = test system: Hs-578T
[19] = test system: IGROV-1
[20] = test system: K562
[21] = test system: KM12
[22] = test system: LOX IMVI
[23] = test system: M14
[24] = test system: MCF7
[25] = test system: MDA-MB-231
[26] = test system: MDA-MB-435
[27] = test system: MDA-N
[28] = test system: MOLT-4
[29] = test system: Malme-3M
[30] = test system: NCI-H226
[31] = test system: NCI-H23
[32] = test system: NCI-H460
[33] = test system: NCI-H522
[34] = test system: OVCAR-3
[35] = test system: OVCAR-4
[36] = test system: OVCAR-5
[37] = test system: OVCAR-8
[38] = test system: PC-3
[39] = test system: RPMI-8226
[40] = test system: RXF 393
[41] = test system: SF-268
[42] = test system: SF-295
[43] = test system: SF-539
[44] = test system: SK-MEL-28
[45] = test system: SK-MEL-2
[46] = test system: SK-MEL-5
[47] = test system: SK-OV-3
[48] = test system: SN12C
[49] = test system: SNB-19
[50] = test system: SNB-75
[51] = test system: SR
[52] = test system: SW-620
[53] = test system: TK-10
[54] = test system: U-251
[55] = test system: UACC-257
[56] = test system: UACC-62
[57] = test system: UO-31

Measured: GI50

COc1ccc(NC2Oc3cc4c(cc3C(c3cc(OC)c(OC)c(OC)c3)C2C)OCO4)cc1 (configuration not stated)
inactive: [10] 3560 nM | [36] 2170 nM | [44] 1320 nM | [53] 5330 nM
485 nM: [13]
active: [1] 544 nM | [2] 316 nM | [3] 685 nM | [4] 897 nM | [5] 1040 nM | [6] 510 nM | [7] 944 nM | [8] 386 nM | [9] 574 nM | [11] 738 nM | [12] 364 nM | [14] 248 nM | [15] 294 nM | [16] 920 nM | [17] 365 nM | [18] 398 nM | [19] 771 nM | [20] 223 nM | [21] 381 nM | [22] 476 nM | [23] 294 nM | [24] 394 nM | [25] 881 nM | [26] 99.1 nM | [27] 81.1 nM | [28] 422 nM | [29] 365 nM | [30] 552 nM | [31] 847 nM | [32] 429 nM | [33] 311 nM | [34] 255 nM | [35] 566 nM | [37] 655 nM | [38] 586 nM | [39] 525 nM | [40] 437 nM | [41] 959 nM | [42] 268 nM | [43] 222 nM | [45] 538 nM | [46] 330 nM | [47] 948 nM | [48] 541 nM | [49] 607 nM | [50] 301 nM | [51] 352 nM | [52] 428 nM | [54] 379 nM | [55] 605 nM | [56] 597 nM | [57] 891 nM
